Experimental data: patent publication US6083920A, “Compositions for modulating intracellular inositol trisphosphate concentration” (priority 1996, dated 2000)

Tests used:
[1] = test system: InsP3 signalling in primary chick cortical neurons; experiment: Phosphoinositide hydrolysis assay (InsP3 signalling) in cultured primary cortical neurons; type: cell-based; conditions: for inhibitory effect on InsP3 enhancement caused by sphingosine or metabotropic glutamate receptor agonists: cortical neurons
Procedure: Primary cultures of neurons were prepared from the telencephalon of white Leghorn chick embryos on the eighth day of their development (Rosenberg et al., J.Biol. Chem. 267:10601-10612, 1992). The neurons were seeded in 24-well plastic tissue culture plates that had been coated with L-polylysine. The density of the neurons was 10^5 cells per well, and they were cultured in Dulbecco's modified Eagle's medium/Ham's high glucose F-12 medium (1:1, vol:vol) containing 500 ng/L sodium selenite, 500 μg/L transferrin, and 165 pmole/L EGF. The cultures were maintained at 37° C. under 5% CO2 in air for 4 days, by which time the cells had differentiated into neurite-bearing cortical granulocytic neurons. These cultures of mature embryonic neurons were used for phosphoinositide hydrolysis assays (as described in Example 2).
Receptor-stimulated and basal unstimulated hydrolysis of phosphoinositides was measured by the following procedure. In order to label the cellular phosphoinositides metabolically, the primary cultures of chick cortical neurons (described in Example 1) were incubated overnight with 0.5 ml Dulbecco's modified Eagle's medium containing 1 μCi [^3 H]myo-inositol per well. The cells were then washed twice with 1 ml Dulbecco's phosphate-buffered saline (PBS) and 0.5 ml of PBS containing 4.5 g/L glucose was added. Sphingosine, psychosine, lysosulphatide, or lysosphingomyelin, prepared as the hydrochloride salt dissolved in water, were then added to produce the desired extracellular concentration in specific wells, […] The cells were then washed twice with 1 ml PBS, and pre-incubated for 15 minutes at 37° C. with 0.5 ml PBS containing 10 mM LiCl and the compound to be tested was added. […] The tubes were vortexed thoroughly, then centrifuged at 500×g for 5 minutes to separate the aqueous and chloroform phases. For each sample, a 1.5-ml aliquot of the upper (aqueous) phase was applied to a small column containing BioRad AG1X8 resin (formate form). Free [^3 H]inositol and [^3 H]glycerophosphoinositol were washed through the column with 5 ml of a solution containing 5 mM sodium borate and 60 mM sodium formate. The total phosphorylated [^3 H] inositol fraction was eluted from the column for radiometric scintillation spectrometry analysis with 3 ml 1.0 M ammonium formate/0.1 M formic acid;
(§1) In addition, a 0.5 ml aliquot of the lower (chloroform) phase of each sample was analyzed radiometrically by scintillation spectrometry in order to determine the quantity of lipid-bound [^3 H]myo-inositol. Estimation of phosphoinositide hydrolysis by phospholipase C is based upon the quantity of [^3 H]inositol phosphates produced, and is expressed as the percentage of the latter relative to total free and componential [^3 H]inositol (dpm ammonium formate+dpm chloroform fractions).
Cultured primary chick cortical neurons that were prelabeled with [^3 H]myo-inositol were examined for enhanced InsP3 signalling in response to various agonists including glutamate, aspartate, and the metabotropic […] receptor agonists ibotenate and quisqualate.

[2] = test system: bradykinin-stimulated phosphoinositide signalling in PC12 cells; experiment: Phosphoinositide hydrolysis assay (InsP3 production) in PC12 cells; type: cell-based, rat; conditions: for sensitivity of PC12 cells to bradykinin: at relatively moderate levels
Excerpt: PC12 cells, from a rat adrenal pheochromocytoma cell line, were used as a model of neurons from the peripheral nervous system. These cells were obtained from a common laboratory cell culture stock and grown in plastic culture flasks in Dulbecco's modified Eagle's medium (DMEM) supplemented with 5% heat-inactivated horse serum and 10% heat-inactivated fetal calf serum (PC12 cells are also available from the American Type Culture Collection under the Accession number CRL 1721). The cells were grown at 37° C. in 5% CO2 in air until a confluent monolayer formed. The cells were dispersed into 24-well plastic tissue culture plates at a density of 10^5 cells per well and used for the phosphoinositide hydrolysis assays (as described in EXAMPLE 2).
Receptor-stimulated and basal unstimulated hydrolysis of phosphoinositides was measured by the following procedure. In order to label the cellular phosphoinositides metabolically, the primary cultures of chick cortical neurons (described in Example 1) were incubated overnight with 0.5 ml Dulbecco's modified Eagle's medium containing 1 μCi [^3 H]myo-inositol per well. The cells were then washed twice with 1 ml Dulbecco's phosphate-buffered saline (PBS) and 0.5 ml of PBS containing 4.5 g/L glucose was added. Sphingosine, psychosine, lysosulphatide, or lysosphingomyelin, prepared as the hydrochloride salt dissolved in water, were then added to produce the desired extracellular concentration in specific wells, and the 24-well plates were swirled gently on a rotary shaker for 1 hr at 23° C. The cells were then washed twice with 1 ml PBS, and pre-incubated for 15 minutes at 37° C. with 0.5 ml PBS containing 10 mM LiCl and the compound to be tested was added. After 30 minutes, the experiment was terminated by adding 1 ml of ice-cold methanol to each well and transferring the material in each well to polypropylene tubes that contained 0.4 ml water and 1 ml chloroform. The tubes were vortexed thoroughly, then centrifuged at 500×g for 5 minutes to separate the aqueous and chloroform phases. For each sample, a 1.5-ml aliquot of the upper (aqueous) phase was applied to a small column containing BioRad AG1X8 resin (formate form). Free [^3 H]inositol and [^3 H]glycerophosphoinositol were washed through the column with 5 ml of a solution containing 5 mM sodium borate and 60 mM sodium formate. The total phosphorylated [^3 H] inositol fraction was eluted from the column for radiometric scintillation spectrometry analysis with 3 ml 1.0 M ammonium formate/0.1 M formic acid;
as §1
PC12 cells display a strong phospholipase C-linked metabotropic receptor response to bradykinin, an effective pain producing agonist.
The degree of InsP3 inhibition is a function of the log of the psychosine concentration for a fixed time of exposure (FIG. 4). Exposing PC12 cells to 50 μM exogenous psychosine for 30 minutes was sufficient to reduce a metabotropic response to 10 μM bradykinin to half maximum.

Row | Structure (SMILES) | InsP3 production ([2]; PC12 cells) | sensitivity of PC12 cells to bradykinin [2] | inhibitory effect on InsP3 enhancement caused by sphingosine or metabotropic glutamate receptor agonists [1] | further results
1 | N[C@@H](Cn1oc(=O)[nH]c1=O)C(=O)O [Quisqualate, quisqualate] |  |  |  | Ins-P-n, modulator Lsm:Sph ([1]; 20 μM Lysosphingomyelin + 20 μM Sphingosine, then 100 μM agonist 20 min, normalized to control = 1.00): 2.25 ± 0.15; Ins-P-n, modulator Psy:Sph ([1]; 20 μM Psychosine + 20 μM Sphingosine, then 100 μM agonist 20 min, normalized to control = 1.00): 3.30 ± 0.25; fold induction at 100 µM ([1]; Gallus gallus, Cortical neurone, 20 min, read-out: Ins-P-n (agonist alone)): 3 ± 0.05
2 | CCCCCCCCCCCCC/C=C/[C@@H](O)[C@@H](N)COP(=O)([O-])OCC[N+](C)(C)C [lysosphingomyelin, sphingosyl phosphoryicholine] | strongly inhibit | can entirely block | blocked this enhancement | 
3 | CCCCCCCCCCCCC/C=C/[C@@H](O)[C@@H](N)CO[C@@H]1O[C@H](CO)[C@H](O)[C@H](O)[C@H]1O [psychosine, lysocerebroside] | strongly inhibit | can entirely block | blocked this enhancement | IC50 ([2]; PC12 cells, 30 minutes exposure, 10 μM bradykinin, read-out: exogenous concentration reducing metabotropic response to bradykinin to half maximum): 50 µM
4 | CCCCCCCCCCCCC/C=C/[C@@H](O)[C@@H](N)CO [sphingosine] |  |  |  | basal, unstimulated level of InsP3 production ([2]; PC12 cells): tonically upregulated; basal, unstimulated InsP3 level in cortical neurons [1]: tonically enhanced
